Results from US20150087627A1, “COMBINATION OF KINASE INHIBITORS AND USES THEREOF” (Intellikine LLC, priority 2011, published 2015).

Tests used:
T47D = T47D proliferation; type: cell-based; conditions: Homo sapiens; T47D cell line
PI3K α (p110α/p85α) = biological target: T1, PI3K α (p110α/p85α) (Homo sapiens, UniProt P42336); experiment: PI 3-Kinase (human) HTRF assay, PI3K α; type: biochemical; conditions: read-out: PI3K α IC50
T1 construct: purchased Upstate / Millipore Corporation

PI3K γ (p110γ) = biological target: T2, PI3K γ (p110γ) (Homo sapiens, UniProt P48736); experiment: PI 3-Kinase (human) HTRF assay, PI3K γ; type: biochemical; conditions: read-out: PI3K γ IC50
T2 construct: purchased Upstate / Millipore Corporation
T2 sequence (P48736 whole entry): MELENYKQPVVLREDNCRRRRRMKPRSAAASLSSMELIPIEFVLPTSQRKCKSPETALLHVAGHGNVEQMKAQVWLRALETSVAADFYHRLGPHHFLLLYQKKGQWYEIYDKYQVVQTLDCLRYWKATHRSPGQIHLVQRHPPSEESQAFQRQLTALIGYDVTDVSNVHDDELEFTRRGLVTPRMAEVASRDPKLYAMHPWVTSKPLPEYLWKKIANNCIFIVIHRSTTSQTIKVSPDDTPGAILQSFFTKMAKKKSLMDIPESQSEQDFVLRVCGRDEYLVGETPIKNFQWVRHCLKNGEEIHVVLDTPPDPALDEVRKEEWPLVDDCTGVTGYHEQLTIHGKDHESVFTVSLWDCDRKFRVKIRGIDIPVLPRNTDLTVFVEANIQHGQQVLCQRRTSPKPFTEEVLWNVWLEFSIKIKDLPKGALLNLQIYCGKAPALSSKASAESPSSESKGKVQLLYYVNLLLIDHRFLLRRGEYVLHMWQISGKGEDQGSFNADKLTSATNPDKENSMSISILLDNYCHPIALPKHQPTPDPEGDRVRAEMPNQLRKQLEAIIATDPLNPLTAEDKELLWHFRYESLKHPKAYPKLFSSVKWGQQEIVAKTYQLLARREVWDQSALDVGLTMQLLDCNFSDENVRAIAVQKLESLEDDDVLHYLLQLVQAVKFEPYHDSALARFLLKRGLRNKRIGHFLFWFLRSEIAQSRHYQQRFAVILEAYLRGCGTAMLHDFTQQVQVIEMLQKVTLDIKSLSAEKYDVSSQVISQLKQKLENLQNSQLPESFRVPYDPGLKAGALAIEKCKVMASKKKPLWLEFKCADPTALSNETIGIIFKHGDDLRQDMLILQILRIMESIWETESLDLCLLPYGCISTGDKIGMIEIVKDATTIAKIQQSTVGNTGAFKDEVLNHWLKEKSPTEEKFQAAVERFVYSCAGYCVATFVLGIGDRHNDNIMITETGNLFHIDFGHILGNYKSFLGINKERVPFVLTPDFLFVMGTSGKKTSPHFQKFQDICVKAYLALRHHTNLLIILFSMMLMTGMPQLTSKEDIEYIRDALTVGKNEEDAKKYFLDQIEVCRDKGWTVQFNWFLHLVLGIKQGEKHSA

PI3K β (p110β/p85α) = biological target: T3, PI3K β (p110β/p85α) (Homo sapiens, UniProt P42338); experiment: PI 3-Kinase (human) HTRF assay, PI3K β; type: biochemical; conditions: read-out: PI3K β IC50
T3 construct: purchased Upstate / Millipore Corporation
T3 sequence (P42338 whole entry): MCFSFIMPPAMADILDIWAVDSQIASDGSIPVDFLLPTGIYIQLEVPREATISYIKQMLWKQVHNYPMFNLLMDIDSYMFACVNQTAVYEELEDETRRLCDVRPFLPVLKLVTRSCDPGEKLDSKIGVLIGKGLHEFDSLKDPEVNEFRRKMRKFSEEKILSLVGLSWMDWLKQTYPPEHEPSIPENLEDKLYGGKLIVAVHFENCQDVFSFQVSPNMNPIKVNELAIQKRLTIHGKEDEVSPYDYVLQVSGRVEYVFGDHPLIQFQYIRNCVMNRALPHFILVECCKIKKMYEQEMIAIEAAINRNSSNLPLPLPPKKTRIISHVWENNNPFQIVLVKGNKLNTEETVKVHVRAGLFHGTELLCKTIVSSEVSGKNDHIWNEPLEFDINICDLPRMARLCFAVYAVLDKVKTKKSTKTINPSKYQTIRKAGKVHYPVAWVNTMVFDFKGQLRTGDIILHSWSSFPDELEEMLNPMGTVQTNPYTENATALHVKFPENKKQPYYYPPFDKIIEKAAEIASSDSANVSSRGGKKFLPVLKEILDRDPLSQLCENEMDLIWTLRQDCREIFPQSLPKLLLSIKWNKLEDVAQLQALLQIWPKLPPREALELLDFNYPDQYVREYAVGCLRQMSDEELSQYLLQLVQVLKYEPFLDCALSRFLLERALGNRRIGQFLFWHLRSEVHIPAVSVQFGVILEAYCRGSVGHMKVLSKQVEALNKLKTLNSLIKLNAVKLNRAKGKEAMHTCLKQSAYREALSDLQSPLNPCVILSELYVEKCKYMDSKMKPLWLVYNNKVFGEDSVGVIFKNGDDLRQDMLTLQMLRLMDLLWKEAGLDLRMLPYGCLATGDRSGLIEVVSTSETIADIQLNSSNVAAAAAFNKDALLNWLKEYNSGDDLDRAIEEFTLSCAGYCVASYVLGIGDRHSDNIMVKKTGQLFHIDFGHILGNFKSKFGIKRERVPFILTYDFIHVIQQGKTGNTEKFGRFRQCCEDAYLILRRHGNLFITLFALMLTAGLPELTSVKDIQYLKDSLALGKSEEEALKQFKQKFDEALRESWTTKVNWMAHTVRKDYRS
T3 sequence (P27986 whole entry partner): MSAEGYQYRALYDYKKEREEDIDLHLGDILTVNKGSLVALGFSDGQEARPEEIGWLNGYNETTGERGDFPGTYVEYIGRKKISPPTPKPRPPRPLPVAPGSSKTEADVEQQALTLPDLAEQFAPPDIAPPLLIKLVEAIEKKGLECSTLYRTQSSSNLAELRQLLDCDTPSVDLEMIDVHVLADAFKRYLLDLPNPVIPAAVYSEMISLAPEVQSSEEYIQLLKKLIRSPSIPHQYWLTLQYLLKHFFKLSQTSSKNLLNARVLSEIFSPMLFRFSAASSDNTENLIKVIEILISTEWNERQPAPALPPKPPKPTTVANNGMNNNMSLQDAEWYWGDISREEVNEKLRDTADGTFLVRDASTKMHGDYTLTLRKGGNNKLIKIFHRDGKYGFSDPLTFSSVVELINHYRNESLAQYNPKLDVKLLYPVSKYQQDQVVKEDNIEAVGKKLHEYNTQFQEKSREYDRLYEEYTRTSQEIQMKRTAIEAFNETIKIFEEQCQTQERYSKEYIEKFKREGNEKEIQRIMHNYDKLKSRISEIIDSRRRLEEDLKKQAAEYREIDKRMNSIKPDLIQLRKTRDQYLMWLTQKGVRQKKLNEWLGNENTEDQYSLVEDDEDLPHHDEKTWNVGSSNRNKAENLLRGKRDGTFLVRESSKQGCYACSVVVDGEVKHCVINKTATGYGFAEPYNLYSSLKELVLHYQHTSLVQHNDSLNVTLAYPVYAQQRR

PI3K δ = biological target: T4, PI3K δ (Homo sapiens, UniProt O00329); experiment: PI 3-Kinase (human) HTRF assay, PI3K δ; type: biochemical; conditions: read-out: PI3K δ IC50
T4 construct: purchased Upstate / Millipore Corporation
T4 sequence (O00329 whole entry): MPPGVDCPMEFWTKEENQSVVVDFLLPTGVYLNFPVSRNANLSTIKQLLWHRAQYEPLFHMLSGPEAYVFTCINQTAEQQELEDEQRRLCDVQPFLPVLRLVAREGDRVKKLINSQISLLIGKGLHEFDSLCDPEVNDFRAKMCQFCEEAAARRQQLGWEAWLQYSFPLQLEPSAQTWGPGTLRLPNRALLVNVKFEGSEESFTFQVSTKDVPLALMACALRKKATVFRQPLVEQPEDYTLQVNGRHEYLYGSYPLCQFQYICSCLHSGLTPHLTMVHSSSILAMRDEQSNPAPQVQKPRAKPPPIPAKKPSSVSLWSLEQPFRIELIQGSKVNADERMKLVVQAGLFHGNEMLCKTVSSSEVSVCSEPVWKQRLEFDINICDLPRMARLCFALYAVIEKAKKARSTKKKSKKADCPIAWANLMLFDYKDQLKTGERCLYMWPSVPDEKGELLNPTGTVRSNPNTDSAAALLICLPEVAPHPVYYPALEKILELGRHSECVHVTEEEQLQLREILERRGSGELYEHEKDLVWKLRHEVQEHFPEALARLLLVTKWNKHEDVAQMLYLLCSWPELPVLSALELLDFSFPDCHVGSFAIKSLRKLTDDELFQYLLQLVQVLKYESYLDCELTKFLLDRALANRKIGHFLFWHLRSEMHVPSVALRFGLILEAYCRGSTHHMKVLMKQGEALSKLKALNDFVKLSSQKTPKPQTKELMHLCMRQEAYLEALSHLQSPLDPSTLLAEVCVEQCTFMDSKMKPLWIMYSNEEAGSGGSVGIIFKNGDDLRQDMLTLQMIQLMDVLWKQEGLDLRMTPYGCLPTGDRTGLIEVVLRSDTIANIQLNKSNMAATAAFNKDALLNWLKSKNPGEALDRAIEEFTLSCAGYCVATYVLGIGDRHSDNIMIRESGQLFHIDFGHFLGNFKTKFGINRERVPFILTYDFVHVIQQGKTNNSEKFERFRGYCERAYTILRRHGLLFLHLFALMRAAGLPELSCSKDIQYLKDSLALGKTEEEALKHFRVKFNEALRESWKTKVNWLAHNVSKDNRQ
T4 sequence (P27986 whole entry partner): as the sequence (P27986 whole entry partner) above

B cell function = experiment: TNP-Ficoll immunization, antibody production (FIG. 8); type: in vivo; conditions: mice immunized with TNP-Ficoll, 7 days, 70 mg/kg GDC0941, 30, 60 or 120 mg/kg Compound A
Experimental: Mice were immunized with TNP-Ficoll and treated with 1) vehicle; 2) 70 mg/kg GDC0941; 3) 30 mg/kg Compound A; 4) 60 mg/kg Compound A; or 5) 120 mg/kg Compound A for 7 days. Antibody production was measured as a percentage of control group that were treated with vehicle.

[1] = test system: anti-TNP antibody production; experiment: TNP-Ficoll T-cell independent B-cell activation assay; type: in vivo, mice; conditions: 70 mg/kg GDC0941 for 7 days, FIG. 8
Experimental: To test the effects of the compounds of the present invention in suppressing T cell independent antibody production, the TNP-Ficoll B-cell activation assay is used as described herein. Compounds of the present invention are dissolved in an appropriate vehicle (e.g. 5% 1-methyl-2-pyrrolidinone, 85% polyethylene glycol 400, 10% Solutor). Compounds are administered orally approximately 1 hr before TNP-Ficoll treatment to 4-10 week old mice. To study the effects of the compounds on B-cell activation, one set of mice are grouped according to the following table:
Four animals in group 1, and eight animals in groups 2 to 7 are euthanized in CO2 2 hours after the last compound administration on day 7. […]
Serum samples are analyzed for anti-TNP antibody titers by ELISA as described herein. […] HRP substrate (200 μl ABTS solution+30% H2O2+10 ml citrate buffer) is added to each well at 100 μl/well, incubated 2-20 minutes in the dark and the amount of anti-TNP IgG3 is determined spectrophotometrically at 405 nm. Similarly, anti-TNP IgM and total anti-TNP Ab are determined using anti-mouse IgM-HRP and anti-mouse Ig-HRP respectively.
Antibody production was measured using ELISA and plotted as a percentage of control group that were treated with vehicle.

[2] = test system: MDA-MB-361 (PI3Kα/HER2 carcinoma) tumors; experiment: In vivo efficacy in xenogenic mouse model of breast cancer; set-up: species or system Nude mice; conditions: 70 mg/kg, FIG. 9 left panel
Experimental: Blood glucose was monitored periodically following administration of treatment.
Treatment of tumors (MDA-MB-361) with compounds was discontinued on Day 30. Tumors were measured every 2-5 days.

[3] = test system: preclinical breast cancer model; experiment: Preclinical breast cancer model, tumor weight / volume; type: in vivo; conditions: 70 mg/kg Pan-PI3K inhibitor; 60 mg/kg compound A; FIG. 9 left panel
MZB cells = MZB cells in mouse spleen (FIG. 9, right panel); type: in vivo; conditions: 70 mg/kg Pan-PI3K inhibitor compared to 60 mg/kg Compound A
marginal zone B cells = experiment: Marginal zone B cells in mouse spleen (FACS); type: in vivo; conditions: 70 mg/kg, spleens harvested 2 hrs after the last dose, FIG. 9
Experimental: The effect of the compounds on the localization/viability of marginal zone B cells in the spleen is also evaluated at the conclusion of treatment.
Spleens were harvested 2 hrs after the last dose, processed and stained with appropriate antibodies (marginal zone B cell: B220+;CD23−;CD21hi) and analyzed for staining on GUAVA EasyCyte FACS machine using Guava Cytosoft 5.2 software.

T1 sequence (P42336 whole entry): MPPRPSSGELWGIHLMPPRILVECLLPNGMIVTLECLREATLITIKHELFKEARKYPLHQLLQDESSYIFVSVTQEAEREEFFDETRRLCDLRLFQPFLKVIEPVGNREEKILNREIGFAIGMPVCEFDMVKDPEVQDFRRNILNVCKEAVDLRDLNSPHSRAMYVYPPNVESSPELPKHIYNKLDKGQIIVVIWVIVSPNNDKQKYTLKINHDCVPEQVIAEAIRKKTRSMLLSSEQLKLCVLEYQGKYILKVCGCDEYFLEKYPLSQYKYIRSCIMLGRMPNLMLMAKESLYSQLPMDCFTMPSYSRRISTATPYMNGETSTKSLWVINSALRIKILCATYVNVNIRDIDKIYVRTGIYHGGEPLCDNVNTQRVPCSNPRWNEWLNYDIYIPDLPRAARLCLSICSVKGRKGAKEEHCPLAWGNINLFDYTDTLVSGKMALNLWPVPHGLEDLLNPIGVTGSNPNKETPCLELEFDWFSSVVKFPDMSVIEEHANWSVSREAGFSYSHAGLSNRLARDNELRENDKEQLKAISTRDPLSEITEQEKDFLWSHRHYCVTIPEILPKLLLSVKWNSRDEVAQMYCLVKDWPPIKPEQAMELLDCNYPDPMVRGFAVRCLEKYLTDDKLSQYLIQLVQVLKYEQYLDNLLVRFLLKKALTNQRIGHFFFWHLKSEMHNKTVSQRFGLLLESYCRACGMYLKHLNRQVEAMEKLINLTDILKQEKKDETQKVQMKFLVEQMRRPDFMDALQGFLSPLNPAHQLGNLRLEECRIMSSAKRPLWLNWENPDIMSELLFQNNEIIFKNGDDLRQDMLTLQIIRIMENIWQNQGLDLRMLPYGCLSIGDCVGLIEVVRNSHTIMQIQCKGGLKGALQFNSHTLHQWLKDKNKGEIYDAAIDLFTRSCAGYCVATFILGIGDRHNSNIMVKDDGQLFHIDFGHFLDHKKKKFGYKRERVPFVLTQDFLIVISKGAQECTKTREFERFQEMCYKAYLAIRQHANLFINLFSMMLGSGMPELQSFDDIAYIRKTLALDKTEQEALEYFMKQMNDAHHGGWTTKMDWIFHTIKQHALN
T1 sequence (P27986 whole entry partner): as the sequence (P27986 whole entry partner) above

SMILES	IC50 (T47D) [µM]	IC50 (PI3K α (p110α/p85α)) [µM]	IC50 (PI3K γ (p110γ)) [µM]	IC50 (PI3K β (p110β/p85α)) [µM]	IC50 (PI3K δ) [µM]	B cell function in vivo (antibody production as percentage of vehicle control) (B cell function)	B cell function in vivo (antibody production, ELISA) [1]	tumor weight [2]	tumor weight of a breast cancer model [3]	presence of MZB cells in mouse spleen (MZB cells)	presence of MZB cells in mouse spleen (marginal zone B cells)
Nc1nc2cc(-c3ccc4nnc(C(=O)N5CCOCC5)n4c3)ccc2o1 [Compound 282]	> 10	> 10	> 10	> 10	> 10	–	–	–	–	–	–
CS(=O)(=O)N1CCN(Cc2cc3nc(-c4cccc5[nH]ncc45)nc(N4CCOCC4)c3s2)CC1 [Pan-PI3K inhibitor, reference compound]	–	–	–	–	–	blocks B cell function in vivo	blocks B cell function in vivo	reduction in tumor weight	reduction in tumor weight	reduced presence of MZB cells	reduced presence of MZB cells
